Data from paper PMC12298624, “Anti-Infective Properties, Cytotoxicity, and In Silico ADME Parameters of Novel 4′-(Piperazin-1-yl)benzanilides” (Pharmaceuticals, 2025).

What was measured:
[1] = Parallel artificial membrane permeability assay (PAMPA); conditions: PAMPA, pH 7.4, Pe, PBS pH 7.4, 200 µM, 5 h, room temperature
Procedure: With the high-throughput PAMPA the newly synthesized compounds were tested for their passive permeability through cell membranes without the influence of efflux pumps or transporter proteins. The assay was performed using a Corning® Gentest^TM Precoated PAMPA Plate System (Corning, Glendale, AZ, USA) with 96-well polystyrene plates. The bottom of the acceptor plate consists of a porous membrane, whereby the pores are lined with a lipid–oil–lipid triple layer. Stock solutions of each test compound at 10 mM were prepared in DMSO or methanol and diluted with phosphate-buffered saline (PBS at a pH of 7.4) to a final concentration of 200 µM. […] The donor plate (bottom plate) was filled with the compound solutions, whereby all compounds were tested in quadruplicates. Each well of the acceptor plate (top plate) was filled with PBS buffer. Donor and acceptor plates were combined and incubated at room temperature for 5 h. After that, the plates were separated and 150 µL of each well of both plates were transferred to 96-well UV plates (Greiner Bio-One). Absorption at different wavelengths covering a range from 200 to 300 nm was measured using a SpectraMax M3 UV plate reader. […] The plates were analyzed at the wavelength where the R2 value of the calibration curve was higher than 0.99 [47].
Recovery of compounds from donor and acceptor wells (mass retention) was calculated as shown in the equation below. Data were only accepted when recovery exceeded 70%. The equation is as follows:(3) R=1−[cDt×VD+cAt×VA]/(c0×VD) where

[2] = system: E. coli NCTC 13353; assay: MIC/MBC microbroth dilution (EUCAST); assay type: cell-based, Escherichia coli; conditions: Escherichia coli; for MBC: NCTC13353; for MIC: NCTC13353, read-out: MIC
Procedure: (§1) Minimum inhibitory concentrations (MIC values) were obtained using the microbroth dilution method as stated in the EUCAST guidelines. Tests were conducted on cation adjusted Mueller–Hinton broth (caMHB) or agar (caMHA). These were prepared and stored following the manufacturer’s guidelines. Biological organisms were prepared via growth on either Luria–Bertani (LB) or cation adjusted Mueller–Hinton agar plates. These were grown for 24 h at 37 °C, except for Micrococcus luteus where MICs took longer to grow and as a consequence were read after 48 h once a clear positive control could be observed. For the MIC experiment, the bacteria were prepared using the McFarland 0.5 standard and diluted 1 in 100 or 1 in 10 in caMHB following EUCAST and CSLI guidelines for the preparation of bacteria. Testing of the compounds using the microbroth dilution method took place in 96-well plates. Serial 2-fold dilutions of compounds in caMHB covering a range from 256 µg/mL to 0.25 µg/mL were prepared. Bacteria preparations (McFarland) were added to the compound dilutions, further halving the compound concentrations. The plate was then incubated for 18 h at 37 °C. Controls for the MIC experiments included a bacterial growth (positive) control of bacteria and caMHB only and a media only (negative) control. After incubation, the plates were read, whereby the positive control of bacteria was visible and the negative control was clear of contamination. The last clear well, where there is no growth of bacteria, was counted as the MIC value. […] The lowest concentration without any bacterial growth was counted as the MBC value. The following pathogens were used: Pseudomonas aeruginosa NCTC 13437, Escherichia coli NCTC 13353, Bacillus subtilis 168a, Serratia marcescens NCTC 9940, Micrococcus luteus ATCC 10240, Staphylococcus aureus JE2 USA 300, Acinetobacter baumannii ATCC 19606, and Klebsiella pneumoniae ATCC 700603. A concentration range of 256 µg/mL to 0.25 µg/mL of a combination of ciprofloxacin and meropenem against E. coli 25922 was used as an antibiotic control to ensure correct dilution and performance of the assay.

[3] = system: P. aeruginosa NCTC 13437; assay: MIC/MBC microbroth dilution (EUCAST); assay type: cell-based; conditions: Pseudomonas aeruginosa, NCTC13437
Procedure: as §1

[4] = system: S. aureus JE2 USA 300; assay: MIC/MBC microbroth dilution (EUCAST); assay type: cell-based; conditions: Staphylococcus aureus, USA300, S. aureus JE2 USA 300
Procedure: as §1

[5] = system: K. pneumoniae ATCC 700603; assay: MIC/MBC microbroth dilution (EUCAST); assay type: cell-based; conditions: Klebsiella pneumoniae, ATCC700603
Procedure: as §1

[6] = system: S. marcescens NCTC 9940; assay: MIC/MBC microbroth dilution (EUCAST); assay type: cell-based; conditions: Serratia marcescens, NCTC9940
Procedure: as §1

[7] = Resazurin-based in vitro cytotoxicity with HepG2 cells; assay type: cell-based, human; conditions: HepG2 cells; human hepatocarcinoma cells, 48 h
Procedure: The HepG2 cells were washed with DPBS (Dulbecco’s PBS without calcium and magnesium, Gibco, Cat #21600-044) and trypsinized with trypsin solution in DPBS. Trypsinization was stopped by adding culture medium, and after being stained with Trypan Blue (SORS Ukraine) cells were counted using a counting chamber (Hausser Scientific, Cat #3500). The cell suspension was placed in a falcon tube containing plating medium DMEM/High glucose with 1% fetal bovine serum, 100 units/mL penicillin, and 100 µg/mL streptomycin. Cells at a density of 250,000 cells/mL were seeded in sterile 384-well plates (Greiner Bio-One, Cat #781091) in a volume of […] and incubated at 37 °C and 5% CO2. Serial dilutions of ten 3-fold dilution steps of test and reference compounds covering a range from 100.0 to 0.005 µM were added to the wells, followed by incubation at 37 °C and 5% CO2 for 48 h. Then, resazurin (50 µM final concentration) was added and plates were incubated for another 3 h. The plates were read with a SpectraMax microplate reader (Molecular Devices Cooperation, Sunnyvale, CA, USA)) using an extinction wavelength of 555 nm and an emission wavelength of 570 nm. IC50 values were calculated using GraphPad Prism 9.0 charting software. Doxorubicin (Sigma Aldrich D1515) was used as control.

[8] = system: A. baumannii ATCC 19606; assay: MIC/MBC microbroth dilution (EUCAST); assay type: cell-based, Acinetobacter baumannii; conditions: Acinetobacter baumannii; for MBC: ATCC19606; for MIC: ATCC19606, read-out: MIC
Procedure: as §1

[9] = system: P. falciparum NF54; assay: In vitro microplate assay against P. falciparum NF54 (3H-hypoxanthine incorporation); assay type: cell-based, Plasmodium falciparum; conditions: Plasmodium falciparum, NF54, chloroquine-sensitive strain NF54, erythrocytic stages; read-out: P.f.NF54 IC50
Procedure: Serial drug dilutions of eleven 3-fold dilution steps covering a range from 100 to 0.002 µg/mL were prepared. […] After 48 h of incubation time, 0.05 mL of ^3H-hypoxanthine (=0.5 µCi) was added to each well of the plate. The plates were incubated for a further 24 h under the same conditions. Plates were then harvested using a BetaplateTM cell harvester (Wallac, Zurich, Switzerland). Red blood cells were transferred onto a glass fiber filter and then washed with distilled aqua demin. The dried filters were inserted into a plastic foil with 10 mL of scintillation fluid and counted in a BetaplateTM liquid scintillation counter (Wallac, Zurich, Switzerland). IC50 values were calculated from sigmoidal inhibition curves by linear regression using Microsoft Excel. […] Louis, MO, USA) was used as control.

[10] = Resazurin-based in vitro cytotoxicity with L-6 cells; assay type: cell-based, rat; conditions: rat
Procedure: Serial drug dilutions of eleven 3-fold dilution steps covering a range from 100 to 0.002 µg/mL were prepared. After 70 h of incubation, the plates were inspected under an inverted microscope to assure growth of the controls and sterile conditions. […] The plates were read with a Spectramax Gemini XS microplate fluorometer (Molecular Devices Cooperation, Sunnyvale, CA, USA) using an excitation wavelength of 536 nm and an emission wavelength of 588 nm. IC50 values were calculated by linear regression from the sigmoidal dose–inhibition curves using SoftmaxPro software Version 8.2.1 (Molecular Devices Cooperation, Sunnyvale, CA, USA). Podophyllotoxin (Sigma P4405) was used as control.

[11] = system: B. subtilis 168a; assay: MIC/MBC microbroth dilution (EUCAST); assay type: cell-based, Bacillus subtilis; conditions: Bacillus subtilis, 168A; for MIC: read-out: MIC
Procedure: as §1

Papp at 5 h, 200 µM [1] [×10⁻⁶ cm/s]	MIC [2] [µg/mL]	MIC [3] [µg/mL]	MIC [4] [µg/mL]	MIC [5] [µg/mL]	MIC [6] [µg/mL]	MIC [8] [µg/mL]	IC50 [9] [µM]	MIC [11] [µg/mL]	Compound	MBC [2] [µg/mL]	MBC [3] [µg/mL]	MBC [4] [µg/mL]	MBC [5] [µg/mL]	MBC [6] [µg/mL]	IC50 at 48 h [7] [µM]	MBC [8] [µg/mL]	IC50 at 70 h [10] [µM]	MBC [11] [µg/mL]
6.89	> 256	> 256	128	128	> 256	128	3.15	128	O=C(Nc1ccc(N2CCNCC2)cc1)c1cccc(C(F)(F)F)c1Oc1ccc(F)cc1 [Compound 57, 2-(4-Fluorophenoxy)-N-[4-(piperazin-1-yl)phenyl]-3-(trifluoromethyl)benzamide]	> 256	> 256	128	128	> 256	10.4	256	37.3	256
14.2	256	> 256	128	128	> 256	256	2.04	128	O=C(Nc1ccc(N2CCNCC2)cc1)c1ccccc1Oc1ccc(F)cc1 [Compound 59, 2-(4-Fluorophenoxy)-N-[4-(piperazin-1-yl)phenyl]benzamide]	> 256	> 256	128	128	> 256	38.9	256	25.4	128
11.7	> 256	> 256	> 256	> 256	> 256	> 256	4.7	256	O=C(Nc1ccc(N2CCNCC2)cc1)c1cccc(F)c1Oc1ccc(F)cc1 [Compound 60, 3-Fluoro-2-(4-fluorophenoxy)-N-[4-(piperazin-1-yl)phenyl]benzamide]	> 256	> 256	> 256	> 256	> 256	26.2	> 256	40.8	256
